The values that follow come from US11951113B2, “Synergestic combination composition comprising a steroidal saponin, a first polyphenolic compound and a second polyphenolic compound” (NEURALIA, priority 2018, dated 2024).

This data set concerns primary cortical neurons injured by glutamate. As to the kind of experiment: Neuroprotection of primary cortical neurons injured by glutamate: neuron survival and neurite network (MAP-2 staining). It counts as cell-based, rat. The following applies: for effect on neuritic network / effect on neuron survival: glutamate 40 μM. The protocol: Rat cortical neurons were cultured as described by Singer et al., (J. Neuroscience, (1999), 19(7), 2455-2463) and Callizot et al. (J. Neurosc., (2013), Res. 91(5), 706-716).
Pregnant females (Wistar; JanvierLabs, St Berthevin, France) at 15 days of gestation were killed by cervical dislocation. Foetuses were collected and immediately placed in ice-cold L15 Leibovitz medium (Pan Biotech, Aidenbach, Germany) with a 2% penicillin (10,000 U/ml) and streptomycin (10 mg/ml) solution (PS; Pan Biotech, Aidenbach, Germany) and 1% bovine serum albumin (BSA; Pan Biotech, Aidenbach, Germany). Cortex was treated for 20 min at 37° C. with a trypsin-EDTA (Pan Biotech, Aidenbach, Germany) solution at a final concentration of 0.05% trypsin and 0.02% EDTA. The dissociation was stopped by addition of Dulbecco's modified Eagle's medium (DMEM) with 4.5 g/liter of glucose (Pan Biotech, Aidenbach, Germany), containing DNAse I grade II (final concentration 0.5 mg/ml; Pan Biotech, Germany) and 10% fetal calf serum (FCS; Invitrogen, Cergy Pointoise, France). Cells were mechanically dissociated by three forced passages through the tip of a 10-ml pipette. Cells were then centrifuged at 515 g for 10 min at 4° C. The supernatant was discarded, and the pellet was resuspended in a defined culture medium consisting of Neurobasal medium (Invitrogen, Cergy Pointoise, France) with a 2% solution of B27 supplement (Invitrogen, Cergy Pointoise, France), 2 mmol/liter of L-glutamine (Pan Biotech, Aidenbach, Germany), 2% of PS solution, and 10 ng/ml of brain-derived neurotrophic factor (BDNF; Pan Biotech, Aidenbach, Germany). Viable cells were counted in a Neubauer cytometer, using the trypan blue exclusion test. The cells were seeded at a density of 30,000 per well in 96-well plates precoated with poly-L-lysine (Corning Biocoat, Tewksbury, USA) and were cultured at 37° C. in an air (95%)-CO2 (5%) incubator. The medium was changed every 2 days. The cortical neurons were intoxicated with glutamate solutions (see below) after 13 days of culture.
On day 13, glutamate (Sigma Aldrich, Lyon, France) was added into cell culture to a final concentration of 40 μM diluted in control medium in presence or absence of test compounds for 20 min. After 20 min, the cells were washed-out and new fresh medium containing or not NSPXX-E2 or NSPXX-E1 extracts was added for 48 h additional time.
After 48 hours of glutamate intoxication, cells were fixed by a cold solution of ethanol (95%, Sigma) and acetic acid (5%, Sigma) for 5 min at −20° C. After permeabilization with 0.1% of saponin (Sigma), cells were incubated for 2 h with mouse monoclonal antibody anti microtubule-associated-protein 2 (MAP-2; Sigma) at dilution of 1/400 in PBS (Pan biotech) containing 1% foetal calf serum (Invitrogen) and 0.1% of saponin.
For each condition 6 wells were assessed, 30 pictures per well were taken using MetaXpress (molecular device) with 20× magnification (30 pictures at X20 representing ˜80% of the total well surface), to assess neurite network (MAP-2 staining). Analysis of picture was done using MetaXpress custum module editor software (molecular device), the total neurite length per picture was recorded). A mean neurite length of the ten pictures was automatically calculated per well, then one data was provided per well (total of 6 raw data were provided per condition).
For each condition 6 wells were assessed, 30 pictures per well were taken using MetaXpress (molecular device) with 20× magnification to assess cell bodies (MAP-2 staining). Analysis of picture was done using MetaXpress custum module editor software (molecular device), the number of neurons per picture was recorded. A mean of neuron number of the […] pictures was automatically calculated per well, then one data was provided per well (total of 6 raw data were provided per condition).
All values were expressed as mean+/−s.e.mean. […]

`O=C(O)c1cc(O)c(O)c(O)c1` [Gallic acid, gallic acid] gave a viability at 10 µM (Rattus norvegicus, Primary cortical neuron, 20 min) of around 80%. Under “between 10 pM and 1 μM, 20 min”, the “effect on neuritic network” value was “significant protective effect”.
For `C[C@@H]1CC[C@@]2(OC1)O[C@H]1C[C@H]3[C@@H]4CC=C5C[C@@H](O[C@@H]6O[C@H](CO)[C@@H](O[C@@H]7O[C@@H](C)[C@H](O)[C@@H](O)[C@H]7O)[C@H](O)[C@H]6O[C@@H]6O[C@@H](C)[C@H](O)[C@@H](O)[C@H]6O)CC[C@]5(C)[C@H]4CC[C@]3(C)[C@H]1[C@@H]2C` [DIOS, dioscin], the “effect on neuritic network” value (6.3 nM-630 nM, 20 min) was “significant protective effect”.
As for `O=c1c(O)c(-c2ccc(O)c(O)c2)oc2cc(O)cc(O)c12` [quercetin], for the setting “100 nM and 1 μM, glutamate injury”, the “effect on neurite network” value is reported as “significant protective effect”.
As to catechin, the “effect on neuritic network” value by setting is: (1 nM-1 μM, 20 min) “protective effect”; (between 500 nM and 5 μM, 20 min) “significant protective effect”. Moreover, the “effect on neuron survival” value (between 100 nM and 1 μM, 20 min) is recorded as “significant protective effect”.
Turning to `C[C@H]1CC[C@@]2(OC1)O[C@H]1C[C@H]3[C@@H]4CC[C@@H]5C[C@@H](O)CC[C@]5(C)[C@H]4CC[C@]3(C)[C@H]1[C@@H]2C` [SAR, sarsasapogenin], the “effect on neuritic network” value was “protective effect” (100 pM-100 nM, 20 min); “significant protective effect” (between 100 pM and 10 nM, 20 min). Further, the “effect on neuron survival” value (100 nM, 20 min) is listed as “significant protective effect”. Besides, for the setting “1 μmol/L or 10 μmol/L”, the “toxicity for cortical neurons and for neuritic network” value is on record as “toxic”. Moreover, the “toxicity on cortical neurons” value (at the highest concentrations tested) is on record as “toxic”. In addition, where the note is “sarsasapogenin combined with caffeic acid or ferulic acid”, the “reduction of the steroidal saponin concentration compared to sarsasapogenin used alone” value is recorded as 10 fold.
For the molecule `COc1cc(/C=C/C(=O)O)ccc1O` [FA, ferulic acid], the “effect on neuritic network” value (1 μM-100 μM, 20 min) was “significant protective effect”.
With `C[C@@H]1CC[C@@]2(OC1)O[C@H]1C[C@H]3[C@@H]4CC=C5C[C@@H](O)CC[C@]5(C)[C@H]4CC[C@]3(C)[C@H]1[C@@H]2C` [DIOSG, diosgenin], the “effect on neuritic network” value (3 pM-30 pM, 20 min) is listed as “significant protective effect”. In addition, under “diosgenin combined with caffeic acid or ferulic acid”, the “reduction of the concentration of diosgenin compared to diosgenin used alone” value is 10 fold.

As a reminder, the viability is a read-out of living cells in per cent, often relative to untreated cells. Read a low viability as more harm to the cells.
